Results on 10 compounds are retold here after ChEMBL document CHEMBL4196125, “Identification of N-Benzyl 3,5-Dinitrobenzamides Derived from PBTZ169 as Antitubercular Agents” (ACS Med Chem Lett, 2018).

Values after ≈ are worked out from the molar mass of the structure shown.

Common to all, as to type: functional
The subject of experiment [1] is Mycobacterium tuberculosis. Nature of the experiment: Antitubercular activity against Mycobacterium tuberculosis H37Rv harboring GFP measured after 7 days by fluorescence assay. The following applies: 168 h.
The subject of experiment [2] is Mycobacterium tuberculosis. The experiment is described as follows: Antitubercular activity against isoniazid/rifampicin-resistant Mycobacterium tuberculosis 12525 clinical isolate measured after 7 days by microplate alamar blue assay. Particulars: Mycobacterium tuberculosis, 12525, 168 h. For orientation: The colour change of resazurin is a common sign of viable cells or microbes.

In experiment [3] the test system is Mycobacterium tuberculosis. The experiment is described as follows: Antitubercular activity against isoniazid/rifampicin-resistant Mycobacterium tuberculosis 14231 clinical isolate measured after 7 days by microplate alamar blue assay. The following applies: Mycobacterium tuberculosis, 14231, 168 h.

As usually defined, the MIC is the least concentration at which growth counts as inhibited. Lower therefore signals inhibition by little substance. `COc1ccc(OCCNC(=O)c2cc([N+](=O)[O-])cc([N+](=O)[O-])c2)cc1` returned an MIC in experiment [1] of 0.075 µg/mL (≈ 0.208 µM).

The MIC90 is an inhibitory concentration at the 90% level, which refers to growth in some studies and to a panel of isolates in others. In the case of `O=C(NCc1ccc(N2CC3CCCCC3C2)cc1)c1cc([N+](=O)[O-])cc([N+](=O)[O-])c1` (centres undefined), the figures for the MIC90 in experiment [2] and in experiment [3] were 0.031 µg/mL (≈ 0.073 µM) and 0.125 µg/mL (≈ 0.294 µM), respectively.

As to `O=C(NCc1ccc(N2CCSCC2)cc1)c1cc([N+](=O)[O-])cc([N+](=O)[O-])c1`, the MIC90 came out at 0.017 µg/mL (≈ 0.0422 µM) in experiment [2] and 0.085 µg/mL (≈ 0.211 µM) in experiment [3].

For `O=C(NCc1ccc(N2CCC(c3ccc(OC(F)(F)F)cc3)CC2)cc1)c1cc([N+](=O)[O-])cc([N+](=O)[O-])c1`, the MIC90 was found to be 0.21 µg/mL (≈ 0.386 µM) in experiment [2] and 0.474 µg/mL (≈ 0.871 µM) in experiment [3].

Turning to `O=C(NCc1ccc(N2CCN(c3ccc(F)cc3)CC2)cc1)c1cc([N+](=O)[O-])cc([N+](=O)[O-])c1`, the MIC90 in experiment [2] turned out to be 0.047 µg/mL (≈ 0.098 µM); in experiment [3] it was 0.077 µg/mL (≈ 0.161 µM).

Turning to `O=C(NCc1ccc(N2CCC(C(F)(F)F)CC2)cc1)c1cc([N+](=O)[O-])cc([N+](=O)[O-])c1`, the results for the MIC90 in experiment [2] and in experiment [3] were below 0.016 µg/mL and 0.075 µg/mL (≈ 0.166 µM), respectively.

Turning to `O=C(NCc1ccc(N2CCC(C(F)(F)F)CC2)cc1)c1cc([N+](=O)[O-])cc(C(F)(F)F)c1`, the results for the MIC90 in experiment [2] and in experiment [3] were 0.138 µg/mL (≈ 0.29 µM) and above 40 µg/mL, respectively.

As for `NNC(=O)c1ccncc1` [ISONIAZID], the MIC90 in experiment [2] and in experiment [3] was above 40 µg/mL in each case.

As for `O=c1nc(N2CCN(CC3CCCCC3)CC2)sc2c([N+](=O)[O-])cc(C(F)(F)F)cc12` [MACOZINONE], the MIC90 came out at 0.116 µg/mL (≈ 0.254 µM) in experiment [2] and 0.232 µg/mL (≈ 0.508 µM) in experiment [3].

Regarding `CO[C@H]1/C=C/O[C@@]2(C)Oc3c(C)c(O)c4c(O)c(c(/C=N/N5CCN(C)CC5)c(O)c4c3C2=O)NC(=O)/C(C)=C\C=C\[C@H](C)[C@H](O)[C@@H](C)[C@@H](O)[C@@H](C)[C@H](OC(C)=O)[C@@H]1C` [RIFAMPIN], the MIC90 in experiment [2] and in experiment [3] was above 40 µg/mL each time.
